| Compound | melting point |
| --- | --- |
| N#CCCNC(=O)c1cccc(-c2cccc3nc(C(O)c4cccc(C(F)(F)F)c4)cn23)c1 (configuration not stated) | 223 to 224 °C |
| CC(C)NC(C)Cc1ccc(O)cn1 (configuration not stated) | 135 to 138 °C |
| COC(=O)c1cnn(-c2cc(Cl)cc(Cl)c2)c1C(N)=O | 220 to 222 °C |
| Fc1ccc(-c2cc(Cn3cnc4c(Cl)nc5ccccc5c43)on2)cc1 | 219 to 220 °C |
| CCOC(=O)c1cc2cc(OCSN(C)C)ccc2oc1=O | 157 to 160 °C |
| O=C1Cc2ccccc2C(=O)N1Cc1ccccc1F | 140 to 144 °C |
| CCn1c(-c2c(C)cc(C)cc2C)nc(-c2ccncc2)c1-c1ccc(C)cc1 | 137 to 140 °C |
| CC(c1oc2ccccc2c(=O)c1-c1cccc(F)c1)n1nc(-c2ccc3[nH]ccc3c2)c2c(N)ncnc21 (configuration not stated) | 197 to 199 °C |
| O=C1OC(=Cc2ccc(Cl)c([N+](=O)[O-])c2)c2ccccc21 | 198 to 204 °C |
| C[C@H]1CC[C@@H](OC(=O)c2nc(Cl)n3c2[C@@H]2CCCN2C(=O)c2ccccc2-3)CC1 | 176 to 177 °C |
| CCOC(=O)n1nc(Oc2c(F)cc(C(F)(F)F)cc2Cl)cc1C | 127 to 129 °C |
| N#Cc1c(C2CC2)nn(-c2c(Cl)cc(C(F)(F)F)cc2Cl)c1N | 197 to 199 °C |
| c1cc(CN2CCc3cccc(CCc4nnn[nH]4)c32)cc(OCc2ccc3ccccc3n2)c1 | 148 to 151 °C |
| O=C(c1cc(O)c(O)cc1[N+](=O)[O-])N1CCC(N2CCCCC2)CC1 | 290 °C |
| CS(=O)(=O)Nc1cccc(Nc2nc(NC3CCCC3)c3nc[nH]c3n2)c1 | 234 to 239 °C |
| CC(C)(C)NC(=O)C1CCC(c2ccccc2)N1C(=O)CNC(=O)OC(C)(C)C (configuration not stated) | 117 °C |
| CC(C)(NC(=O)c1cc2c(n(CC3CCCCC3)c1=O)CCCCCC2)C(=O)O | 177 to 180 °C |
| Cc1cc(C)c(CC(=O)O)c(C#N)c1 | 155 to 157 °C |
| CCO/C(C)=C(/C#N)C(N)=S | 201 to 204 °C |
| O=C(Nc1ccc(C(F)(F)F)cc1)c1cccc(Oc2cccc(C(F)(F)F)c2)n1 | 130 to 132 °C |

| Compound | melting point |
| --- | --- |
| N#Cc1ccc(OCc2cnsc2)cc1F | 102 to 105 °C |
| CCn1cc(-c2nnn[nH]2)c(=O)c2cc(F)c(N3CCN(c4ncccn4)CC3)c(OC(F)F)c21 | 265 to 268 °C |
| COC(=O)c1ccccc1NC(=O)CNc1ccccc1Br | 89 to 91 °C |
| CC(O)(CCO)c1ccc(Oc2ccccc2)cc1 (configuration not stated) | 74 to 75 °C |
| CC1=C(C#N)C(c2cccc([N+](=O)[O-])c2)C2=C(CCCC2=O)N1 (configuration not stated) | 214 to 216 °C |
| CCCCCCCCCCCCCCCCCCOc1cc(OCCCBr)cc(N(CC(=O)OC)CC(=O)OC)c1 | 67 to 69 °C |
| CN1C(=O)CCC1(O)c1ccc(Cl)c(S(=O)(=O)Cl)c1 (configuration not stated) | 112 to 114 °C |
| COc1ccc2c(c1)CCC1C2CCC2(C)C(=NN(C)C)C(C)CC12 (configuration not stated) | 122 to 124 °C |
| Cn1sc(=O)n(C)c1=O | 64 to 65 °C |
| COc1ncnc(OC)c1NC(=O)CCl | 193 to 195 °C |
| CCOC(=O)C1=C(C)NC(C)=C(C(=O)OCC)C1c1ccccc1/C=C/C(=O)OC1CCCCC1 | 175 to 177 °C |
| O=C(Nc1ccc(-n2nc(-c3ccccc3)c3cccnc32)cc1)C(F)(F)F | 172 to 174 °C |
| Ic1ccc2c(c1)C(c1ccccc1)=NCc1nnc(Cc3ccccc3)n1-2 | 200 to 201 °C |
| CC(C)S(=O)(=O)Nc1ccc(Br)cc1 | 98 to 100 °C |
| CCn1ncc(C(=O)c2ccc(S(C)(=O)=O)c(C)c2Cl)c1O | 225 to 227 °C |
| CNC(=O)N(OC)C(=O)Nc1ccccc1F | 144 to 147 °C |
| N#Cc1cc(C(=O)NNC(=O)c2occ(-c3cccc(OCc4ccccc4)c3)c2-c2cccc(OCc3ccccc3)c2)ccc1O | 171 to 174 °C |
| C[Si](C)(C)c1cccc(Br)c1C(=O)O | 139 to 141 °C |
| ONCC1(c2ccc(OCc3ccc4ccccc4n3)cc2)CCCC1 | 116 to 117 °C |
| COC(=O)c1ccc(NC(C)=O)c2c1OCCC2 | 175 °C |

| Compound | melting point |
| --- | --- |
| O=C(Nc1ccc(S(=O)(=O)C(F)(F)F)cc1Cl)c1c(O)c(C23CC4CC(CC(C4)C2)C3)cc2c1CCC2 | 218 to 219 °C |
| CN(C)C(=O)C1(NS(=O)(=O)c2ccc3c(Cl)cnc(NC(=N)N)c3c2)CCCC1 | 264 to 268 °C |
| O=C(O)CCc1cc(-c2ccc(Cl)cc2)n(-c2ccccc2)n1 | 138 to 139 °C |
| CCOc1ccc(-n2c(-c3ccncc3)nc(SC)c(C#N)c2=O)cc1 | 201 to 204 °C |
| COC(=O)c1cc(Cl)cnc1N | 139 to 140 °C |
| NS(=O)(=O)c1ccc(-c2[nH]c3ccccc3c2-c2ccc(O)cc2)cc1 | 241 to 243 °C |
| CC(C)Oc1c(C(N)=O)oc2ccc(Cl)cc12 | 154 to 155 °C |
| CC=C1CCC2C3C(OC(C)=O)CC4CC(OC(C)=O)CCC4(C)C3CCC12C (configuration not stated) | 92 to 93 °C |
| O=C(O)C1=Cc2cc(F)c(F)cc2NC1C(F)(F)F (configuration not stated) | 187 to 189 °C |
| CCOCc1nc2c(N)nc3cc(Br)ccc3c2s1 | 201 to 204 °C |
| CCOCc1nc2c(N)nc3cccnc3c2n1CCCCN(OC)C(C)=O | 180 to 181 °C |
| CCOc1ccccc1O[C@@H](c1ccccc1)[C@@H](CO[Si](C)(C)C)OS(C)(=O)=O (racemic) | 80 to 82.5 °C |
| O=C(Nc1ncc(C(F)(F)F)o1)C1c2ccccc2Oc2c(F)cccc21 (racemic) | 228 °C |
| Cc1cccc(C(Nc2ccccc2)P(=O)(Oc2ccccc2)Oc2ccccc2)n1 (configuration not stated) | 110 to 112 °C |
| C[C@@H]1Cc2ccsc2[C@H](C)N1CCNC(=O)c1c(F)c(F)c(F)c(F)c1F (relative stereo) | 116 to 119 °C |
| COc1ccc(Sc2[nH]c3cccc4c3c2CC2C4C=C(C)CN2C)cc1 (configuration not stated) | > 250 °C |
| O=C(O)[C@@H]1CSCN1C(=O)CCc1ccccc1 | 93 to 95 °C |
| O=c1c2ccccc2[nH]c(=S)n1CCCO | 174 to 176 °C |
| CCCCCCCCCCC(O)C[N+]1([O-])CCOCC1 (configuration not stated) | 151 to 152 °C |

Next, values leading:

| melting point | Compound |
| --- | --- |
| 325 to 337 °C | Cc1nc(-c2ccc(C(F)(F)F)cc2)sc1C(=O)Nc1cc(Cl)ccc1-c1nnn[nH]1 |
| 157 to 160 °C | Cc1cc(Oc2ccc(S(C)(=O)=O)nc2)cc2cc(C3=NCC(CC(=O)N4CCS(=O)CC4)S3)[nH]c12 (configuration not stated) |
| 228 to 230 °C | O=C(O)Cc1cccc2c(-c3ccc(C(F)(F)F)cc3)nccc12 |
| 208 to 210 °C | CC(=O)N1CCN(CCOc2cc(OC(C)C)c3c(Nc4c(Cl)cnc5c4OCO5)ncnc3c2)CC1 |
| 124 to 125 °C | CCOC(=O)CSc1cccc(-c2nc(=O)c3ccccc3s2)n1 |
| 229 to 231 °C | COc1cccc2c(=O)c(C(N)=O)coc12 |
| 35 to 36.5 °C | CCOC(=O)c1ccc2ccccc2c1 |
| 124 °C | C=C(C)c1ccc(O)c(-n2nc3ccccc3n2)c1 |
| 170 to 172 °C | Cc1nc(N2CCN(Cc3ccc(F)cc3)C2=O)sc1C(=O)NCc1csc(C(C)C)n1 |
| 190 to 191 °C | Cc1c(S(=O)(=O)Nc2ccc(-c3nc(CCl)cs3)cc2S(C)(=O)=O)sc2ccc(F)cc12 |
| 236 °C | CCc1cc(C(=O)Nc2cc(Oc3ccc4nc(NC(=O)C5CC5)cn4n3)ccc2F)n(C)n1 |
| 285 to 287 °C | O=C(O)c1cn(C2CC2)c2c(C(F)(F)F)c(N3CCN(c4ncccn4)CC3)c(F)cc2c1=O |
| 83 to 85 °C | Cc1cc(OCc2ccccc2)cc(OCCCC(C)C)c1C(=O)O |
| 174 to 175 °C | Cc1cc(-c2csc(-c3cccc(C(=O)O)c3)n2)c(C)o1 |
| 136 to 138 °C | CC(C)=C1C(=O)N(c2ccc(O)cc2)C(=O)/C1=C(/c1cc(C)sc1C)C(C)C |
| 65 to 69 °C | Cc1nn(-c2ccc(F)cc2)cc1C(=O)N(C)c1ccc(OCC(C)(C)C)c(C#N)c1 |
| 157 to 161 °C | COc1nc2cc(SCCCc3cc4c(cc3O)CC(CCc3ccccc3)O4)ccc2cc1C(=O)O (configuration not stated) |
| 252 to 255 °C | CCCc1nc2c(N)nc3ccc(-c4cccc(S(C)(=O)=O)c4)cc3c2s1 |
| 111 to 112 °C | COC(=O)Cc1cc(-c2ccccc2)ccc1OCc1ccc(OCc2nc(-c3ccccc3)oc2C)cc1 |

| melting point | Compound |
| --- | --- |
| 219 to 220 °C | O=C(Nc1ccc(N2CCN(C(=O)Nc3ccc(OCCO)cc3C(F)(F)F)CC2)cc1)Nc1ccccc1F |
| 209 to 210 °C | CCOC(=O)/C(=N\OC1CCNC1=O)c1csc(NC(c2ccccc2)(c2ccccc2)c2ccccc2)n1 (configuration not stated) |
| 135 to 136 °C | CCc1cccc(C)c1CNc1nc(OCCOC)cc(NC)c1[N+](=O)[O-] |
| 163 to 165 °C | CC1(c2ccccc2)Cc2cc(OCC#N)c(Cl)c(Cl)c2C1=O (configuration not stated) |
| 84 to 88 °C | CC(C)(C(=O)O)c1ccc(C(=O)C2CC2)cc1 |
| 303 to 304 °C | O=C(O)c1cc(-c2ccc(Cl)cc2)nc(-c2ccc(Cl)c(Cl)c2)c1 |
| 48 to 50 °C | CCc1ccc(C(=O)Sc2ccccn2)cc1 |
| 96 to 97 °C | CC(O)c1ccc(Cc2ccccc2CO)cc1 (configuration not stated) |
| 159 to 160 °C | COc1cc2ncc(F)c(Cl)c2cc1OC |
| 228 to 231 °C | O=C(O)Cc1c(C(=O)c2ccc(-c3ccccc3)cc2)[nH]c2cc(Cl)ccc12 |
| 205 °C | CC(=O)Nc1ccc(NC(=O)OCc2ccccc2)c(O)c1 |
| 232 to 233 °C | COc1cc(C(=O)O)ccc1Cc1cn(C)c2ccc(CC3CCN(C)C3=O)cc12 (configuration not stated) |
| 168 to 170 °C | O=C(O)c1ccc(NCCCCCCOc2ccccc2)cc1 |
| 145 to 147 °C | CN1CC[C@@H](c2c(O)cc(O)c3c(=O)cc(-c4cc(F)ccc4Br)oc23)[C@@H]1CO |
| 248 to 249 °C | Cc1ccc2c(c1)c(Cc1nc3cc(C(F)(F)F)ccc3s1)cn2CC(=O)O |
| 84 °C | Cc1ccc(S(=O)(=O)N2[C@@H](CC(=N)NO)CC[C@H]2c2ccc(F)cc2)cc1 (racemic) |
| 203 °C | NS(=O)(=O)c1cc(C(=O)O)cc(NCc2ccccc2)c1NCCc1ccccc1 |
| 129 °C | CNCCCCN1CC[C@H](NC(=O)c2cc(Cl)c(N)cc2OC)[C@H](OC)C1 (relative stereo) |
| > 250 °C | COc1cc2ncc(C#N)c(Nc3ccc(O)cc3Cl)c2cc1OC |

Reference: a melting point compilation (Tetko et al.; mined from patent text by program, amines drawn as free bases though some values may be those of a salt)
